Measurements from the supplement of paper PMC10307832.

Experiments:
Experiment in all cases: relative viability (nuclei count vs DMSO), 5 days (fraction); higher = more cells survive
Linsitinib + Trametinib = compound: C[C@]1(O)C[C@@H](c2nc(-c3ccc4ccc(-c5ccccc5)nc4c3)c3c(N)nccn32)C1 [Linsitinib] + CC(=O)Nc1cccc(-n2c(=O)n(C3CC3)c(=O)c3c(Nc4ccc(I)cc4F)n(C)c(=O)c(C)c32)c1 [Trametinib] (partner 0.02 µM)
Summary of the method: (§1)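 One day after seeding in 1536-well plates, lung cancer cell lines were dosed by pin tool. Dosing was either single-drug or a fixed anchor-drug dose plus five library-drug doses (not always all listed) in √10 steps. After 5 days, nuclei were stained in one fix-and-stain step and counted on 4× images, and relative viability is the nuclei count of treated wells over that of vehicle wells, given as the median of duplicate plates.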

Linsitinib + Decitabine = compound: C[C@]1(O)C[C@@H](c2nc(-c3ccc4ccc(-c5ccccc5)nc4c3)c3c(N)nccn32)C1 [Linsitinib] + Nc1ncn([C@H]2C[C@H](O)[C@@H](CO)O2)c(=O)n1 [Decitabine] (partner 2 µM)
Summary of the method: as §1

Linsitinib + Vorinostat = compound: C[C@]1(O)C[C@@H](c2nc(-c3ccc4ccc(-c5ccccc5)nc4c3)c3c(N)nccn32)C1 [Linsitinib] + O=C(CCCCCCC(=O)Nc1ccccc1)NO [Vorinostat] (partner 1 µM)
Summary of the method: as §1

Linsitinib + Dasatinib = compound: C[C@]1(O)C[C@@H](c2nc(-c3ccc4ccc(-c5ccccc5)nc4c3)c3c(N)nccn32)C1 [Linsitinib] + Cc1nc(Nc2ncc(C(=O)Nc3c(C)cccc3Cl)s2)cc(N2CCN(CCO)CC2)n1 [Dasatinib] (partner 0.075 µM)
Summary of the method: as §1

**Q.** Which relative viability (Linsitinib + Trametinib; first compound 0.01 µM) does the source give for SK-LU-1 here?
**A.** The relative viability was 0.551.

**Q.** What about the relative viability (Linsitinib + Trametinib; first compound 0.03162 µM) of the same cell line?
**A.** The relative viability was 0.349.

**Q.** What about the relative viability (Linsitinib + Trametinib; first compound 0.1 µM) of the same cell line?
**A.** The relative viability was 0.538.

**Q.** And the relative viability (Linsitinib + Trametinib; first compound 0.3162 µM)?
**A.** The relative viability was 0.471.

**Q.** What about the relative viability (Linsitinib + Trametinib; first compound 1 µM) of the same cell line?
**A.** Its relative viability is 0.534.

**Q.** What about the relative viability (Linsitinib + Decitabine; first compound 0.01 µM) of the same cell line?
**A.** The relative viability was 0.605.

**Q.** And the relative viability (Linsitinib + Decitabine; first compound 0.03162 µM)?
**A.** The relative viability was 0.635.

**Q.** What about the relative viability (Linsitinib + Decitabine; first compound 0.1 µM) of the same cell line?
**A.** Its relative viability is 0.637.

**Q.** And the relative viability (Linsitinib + Decitabine; first compound 0.3162 µM)?
**A.** Its relative viability is 0.624.

**Q.** What about the relative viability (Linsitinib + Decitabine; first compound 1 µM) of the same cell line?
**A.** Its relative viability is 0.602.

**Q.** And the relative viability (Linsitinib + Vorinostat; first compound 0.01 µM)?
**A.** The relative viability was 0.71.

**Q.** What about the relative viability (Linsitinib + Vorinostat; first compound 0.03162 µM) of the same cell line?
**A.** Its relative viability is 0.557.

**Q.** What about the relative viability (Linsitinib + Vorinostat; first compound 0.1 µM) of the same cell line?
**A.** The relative viability was 0.788.

**Q.** And the relative viability (Linsitinib + Vorinostat; first compound 0.3162 µM)?
**A.** Its relative viability is 0.75.

**Q.** And the relative viability (Linsitinib + Vorinostat; first compound 1 µM)?
**A.** The relative viability was 0.742.

**Q.** And the relative viability (Linsitinib + Dasatinib; first compound 0.01 µM)?
**A.** Its relative viability is 0.193.

**Q.** And the relative viability (Linsitinib + Dasatinib; first compound 0.1 µM)?
**A.** Its relative viability is 0.168.

**Q.** And the relative viability (Linsitinib + Dasatinib; first compound 0.3162 µM)?
**A.** The relative viability was 0.182.

**Q.** What about the relative viability (Linsitinib + Dasatinib; first compound 1 µM) of the same cell line?
**A.** Its relative viability is 0.115.

**Q.** Which results are given for SK-MES-1?
**A.** relative viability (Linsitinib + Trametinib; first compound 0.01 µM): 0.516; relative viability (Linsitinib + Trametinib; first compound 0.03162 µM): 0.484; relative viability (Linsitinib + Trametinib; first compound 0.1 µM): 0.556; relative viability (Linsitinib + Trametinib; first compound 0.3162 µM): 0.503; relative viability (Linsitinib + Trametinib; first compound 1 µM): 0.521; relative viability (Linsitinib + Decitabine; first compound 0.01 µM): 0.39; relative viability (Linsitinib + Decitabine; first compound 0.03162 µM): 0.369; relative viability (Linsitinib + Decitabine; first compound 0.1 µM): 0.387; relative viability (Linsitinib + Decitabine; first compound 0.3162 µM): 0.418; relative viability (Linsitinib + Decitabine; first compound 1 µM): 0.423; relative viability (Linsitinib + Vorinostat; first compound 0.01 µM): 1.08; relative viability (Linsitinib + Vorinostat; first compound 0.03162 µM): 0.991; relative viability (Linsitinib + Vorinostat; first compound 0.1 µM): 1.14; relative viability (Linsitinib + Vorinostat; first compound 0.3162 µM): 0.637; relative viability (Linsitinib + Vorinostat; first compound 1 µM): 0.779; relative viability (Linsitinib + Dasatinib; first compound 0.01 µM): 0.297; relative viability (Linsitinib + Dasatinib; first compound 0.03162 µM): 0.351; relative viability (Linsitinib + Dasatinib; first compound 0.1 µM): 0.257; relative viability (Linsitinib + Dasatinib; first compound 0.3162 µM): 0.323; relative viability (Linsitinib + Dasatinib; first compound 1 µM): 0.289

**Q.** How did the relative viability (Linsitinib + Trametinib; first compound 0.01 µM) turn out when SW 900 was run?
**A.** Its relative viability is 0.741.

**Q.** And the relative viability (Linsitinib + Trametinib; first compound 0.03162 µM)?
**A.** Its relative viability is 0.986.

**Q.** What about the relative viability (Linsitinib + Trametinib; first compound 0.1 µM) of the same cell line?
**A.** Its relative viability is 0.762.

**Q.** And the relative viability (Linsitinib + Trametinib; first compound 0.3162 µM)?
**A.** The relative viability was 0.72.

**Q.** What about the relative viability (Linsitinib + Trametinib; first compound 1 µM) of the same cell line?
**A.** Its relative viability is 0.674.

**Q.** What about the relative viability (Linsitinib + Decitabine; first compound 0.01 µM) of the same cell line?
**A.** The relative viability was 0.474.

**Q.** And the relative viability (Linsitinib + Decitabine; first compound 0.03162 µM)?
**A.** Its relative viability is 0.537.

**Q.** And the relative viability (Linsitinib + Decitabine; first compound 0.1 µM)?
**A.** The relative viability was 0.466.

**Q.** And the relative viability (Linsitinib + Decitabine; first compound 0.3162 µM)?
**A.** Its relative viability is 0.374.

**Q.** And the relative viability (Linsitinib + Decitabine; first compound 1 µM)?
**A.** The relative viability was 0.388.

**Q.** What about the relative viability (Linsitinib + Vorinostat; first compound 0.01 µM) of the same cell line?
**A.** Its relative viability is 0.627.

**Q.** And the relative viability (Linsitinib + Vorinostat; first compound 0.03162 µM)?
**A.** The relative viability was 0.436.

**Q.** What about the relative viability (Linsitinib + Vorinostat; first compound 0.1 µM) of the same cell line?
**A.** Its relative viability is 0.458.

**Q.** And the relative viability (Linsitinib + Vorinostat; first compound 0.3162 µM)?
**A.** The relative viability was 0.285.

**Q.** And the relative viability (Linsitinib + Vorinostat; first compound 1 µM)?
**A.** The relative viability was 0.272.

**Q.** What about the relative viability (Linsitinib + Dasatinib; first compound 0.01 µM) of the same cell line?
**A.** The relative viability was 0.537.

**Q.** What about the relative viability (Linsitinib + Dasatinib; first compound 0.03162 µM) of the same cell line?
**A.** Its relative viability is 0.739.

**Q.** And the relative viability (Linsitinib + Dasatinib; first compound 0.1 µM)?
**A.** The relative viability was 0.85.

**Q.** What about the relative viability (Linsitinib + Dasatinib; first compound 0.3162 µM) of the same cell line?
**A.** The relative viability was 0.319.

**Q.** And the relative viability (Linsitinib + Dasatinib; first compound 1 µM)?
**A.** Its relative viability is 0.322.

**Q.** With SW 1573 as the cell line, how does the relative viability (Linsitinib + Trametinib; first compound 0.01 µM) read?
**A.** Its relative viability is 0.671.

**Q.** And the relative viability (Linsitinib + Trametinib; first compound 0.03162 µM)?
**A.** The relative viability was 0.576.

**Q.** What about the relative viability (Linsitinib + Trametinib; first compound 0.1 µM) of the same cell line?
**A.** Its relative viability is 0.646.

**Q.** What about the relative viability (Linsitinib + Trametinib; first compound 0.3162 µM) of the same cell line?
**A.** The relative viability was 0.385.

**Q.** And the relative viability (Linsitinib + Trametinib; first compound 1 µM)?
**A.** Its relative viability is 0.412.

**Q.** And the relative viability (Linsitinib + Decitabine; first compound 0.01 µM)?
**A.** The relative viability was 0.648.

**Q.** What about the relative viability (Linsitinib + Decitabine; first compound 0.03162 µM) of the same cell line?
**A.** The relative viability was 0.589.

**Q.** And the relative viability (Linsitinib + Decitabine; first compound 0.1 µM)?
**A.** The relative viability was 0.447.

**Q.** What about the relative viability (Linsitinib + Decitabine; first compound 0.3162 µM) of the same cell line?
**A.** Its relative viability is 0.472.

**Q.** What about the relative viability (Linsitinib + Decitabine; first compound 1 µM) of the same cell line?
**A.** Its relative viability is 0.348.

**Q.** What about the relative viability (Linsitinib + Vorinostat; first compound 0.01 µM) of the same cell line?
**A.** Its relative viability is 0.934.

**Q.** And the relative viability (Linsitinib + Vorinostat; first compound 0.03162 µM)?
**A.** The relative viability was 0.575.

**Q.** And the relative viability (Linsitinib + Vorinostat; first compound 0.1 µM)?
**A.** Its relative viability is 0.786.

**Q.** And the relative viability (Linsitinib + Vorinostat; first compound 0.3162 µM)?
**A.** The relative viability was 0.26.

**Q.** And the relative viability (Linsitinib + Vorinostat; first compound 1 µM)?
**A.** Its relative viability is 0.518.

**Q.** What about the relative viability (Linsitinib + Dasatinib; first compound 0.01 µM) of the same cell line?
**A.** Its relative viability is 0.454.

**Q.** And the relative viability (Linsitinib + Dasatinib; first compound 0.03162 µM)?
**A.** Its relative viability is 0.454.

**Q.** And the relative viability (Linsitinib + Dasatinib; first compound 0.1 µM)?
**A.** The relative viability was 0.453.

**Q.** What about the relative viability (Linsitinib + Dasatinib; first compound 0.3162 µM) of the same cell line?
**A.** Its relative viability is 0.348.

**Q.** And the relative viability (Linsitinib + Dasatinib; first compound 1 µM)?
**A.** Its relative viability is 0.252.
